Source: patent publication US10334851B2, “Herbicidal isoxazolo[5,4-B]pyridines” (BASF SE, priority 2010, dated 2019)

Key:
Assay type in all cases: in vivo
Abutilon theophrasti = assay: Greenhouse post-emergence treatment of Abutilon theophrasti (velvetleaf); conditions: scale 0 (no damage) to 100 (complete destruction); for pest or weed control at 3000 g/ha: Abutilon theophrasti
Description: (§1) The seeds of the test plants were sown separately for each species. For the post-emergence treatment, the test plants were first grown to a height of 3 to 15 cm, depending on the plant habit, and only then treated with the active ingredients which had been suspended or emulsified in water. For this purpose, the test plants were either sown directly and grown in the same containers, or they were first grown separately as seedlings and transplanted into the test containers a few days prior to treatment. Depending on the species, the plants were kept at 10-25° C. or 20-35° C. The test period extended over 2 to 4 weeks. During this time, the plants were tended, and their response to the individual treatments was evaluated. Evaluation was carried out using a scale from 0 to 100. 100 means no emergence of the plants, or complete destruction of at least the aerial moieties, and 0 means no damage, or normal course of growth. A good herbicidal activity is given at values of at least 80 and a very good herbicidal activity is given at values of at least 90. The plants used in the greenhouse experiments belonged to the following species: [table]

[1] = test system: Amaranthus retroflexus L.; assay: Greenhouse post-emergence treatment of Amaranthus retroflexus L. (pigweed); conditions: for pest or weed control at 1000 g/ha / damage: application rate 1.0 kg/ha; for damage: scale 0 to 100
Description: as §1

Chenopodium album = assay: Greenhouse post-emergence treatment of Chenopodium album (fat-hen); conditions: for pest or weed control at 1000 g/ha / damage: application rate 1.0 kg/ha; for damage: scale 0 to 100
Description: as §1

Setaria faberi = assay: Greenhouse post-emergence treatment of Setaria faberi (giant foxtail); conditions: application rate 3.0 kg/ha; for damage: scale 0 to 100
Description: as §1

[2] = scale 0 to 100, read-out: damage
[3] = application rate 0.927 kg/ha, scale 0 to 100, read-out: damage

SMILES	damage (Abutilon theophrasti; application rate 3.0 kg/ha) [%]	damage [1] [%]	damage (Chenopodium album) [%]	other results
CC(C)CCc1noc2nc(C3CC3)cc(C(=O)O)c12 [I.2.39]	100	–	–	–
COC(=O)c1cc(C2CC2)nc2onc(CCc3ccccc3)c12 [I.4.5]	85	–	–	–
CC#CCOC(=O)c1cc(C2CC2)nc2onc(C)c12 [I.1.68]	100	–	–	–
COC(=O)c1cc(C2(F)CC2)nc2onc(C3CC3)c12 [I.7.53]	–	–	–	pest or weed control at 1000 g/ha [1, 2]: 100%; pest or weed control at 1000 g/ha (Chenopodium album; [2]): 90%
C=CCSC(=O)c1cc(C2CC2)nc2onc(C)c12 [I.1.80]	–	98	98	–
Cc1cc(C(=O)O)c2c(-c3ccco3)noc2n1 [I.7.38]	–	–	–	pest or weed control at 3000 g/ha (Abutilon theophrasti; application rate 3.0 kg/ha): 100%
COc1cccc(-c2noc3nc(C4CC4)cc(C(=O)O)c23)c1 [I.2.22]	100	–	–	–
CCCc1noc2nc(C3(F)CC3)cc(C(=O)O)c12 [I.7.63]	–	100	100	–
Cc1cc(C(=O)O)c2c(C3CC3)noc2n1 [I.7.13]	–	–	–	pest or weed control at 3000 g/ha (Abutilon theophrasti; application rate 3.0 kg/ha): 100%
CCCc1noc2nc(C3CC3)cc(C(=O)SC)c12 [I.4.59]	–	95	100	–
CCCCOc1noc2nc(C3CC3)cc(C(=O)O)c12 [I.2.56]	–	100	100	–
O=C(O)c1cc(C2CC2)nc2onc(CCCc3cccs3)c12 [I.2.40]	–	–	–	pest or weed control at 3000 g/ha (Abutilon theophrasti; application rate 3.0 kg/ha): 100%
CCCCCc1noc2nc(C3CC3)cc(C(=O)OC)c12 [I.4.25]	100	–	–	–
CSC(=O)c1cc(C2CC2)nc2onc(C3CC3)c12 [I.4.60]	–	–	–	pest or weed control at 927 g/ha [1, 3]: 100%; pest or weed control at 927 g/ha (Chenopodium album; [3]): 100%
O=C(O)c1cc(C2CC2)nc2onc(C3CCCCC3)c12 [I.2.26]	–	–	–	pest or weed control at 3000 g/ha (Abutilon theophrasti; application rate 3.0 kg/ha): 100%
COc1ccc(-c2noc3nc(C4(F)CC4)cc(C(=O)O)c23)cc1 [I.7.61]	–	100	100	–
O=C(O)c1cc(C2CC2)nc2onc(-c3cccc(C(F)(F)F)c3)c12 [I.2.21]	100	–	–	–
O=C(O)c1cc(C2CC2)nc2onc(-c3cccc(Cl)c3)c12 [I.2.24]	100	–	–	–
CC(C)(C)c1noc2nc(C3(F)CC3)cc(C(=O)O)c12 [I.7.64]	–	–	–	pest or weed control at 1000 g/ha [1, 2]: 100%; pest or weed control at 1000 g/ha (Chenopodium album; [2]): 100%
O=C(O)c1cc(C2CC2)nc2onc(-c3ccc(I)cc3)c12 [I.2.43]	100	–	–	–

SMILES	damage (Abutilon theophrasti; application rate 3.0 kg/ha) [%]	damage [1] [%]	damage (Chenopodium album) [%]	other results
CCCOc1noc2nc(C3CC3)cc(C(=O)O)c12 [I.2.55]	–	100	100	–
COc1ccc(CCc2noc3nc(C4CC4)cc(C(=O)O)c23)cc1 [I.2.42]	100	–	–	–
Cc1cc(C(=O)O)c2c(-c3ccccc3)noc2n1 [I.7.31]	98	–	–	–
Cc1ccccc1-c1cc(C(=O)O)c2c(C)noc2n1 [I.5.8]	–	–	–	damage (Setaria faberi): 85%
CCCCOc1ccc(-c2noc3nc(C4CC4)cc(C(=O)O)c23)cc1 [I.2.63]	–	100	100	–
Cc1ccccc1-c1noc2nc(C3CC3)cc(C(=O)O)c12 [I.2.52]	–	100	98	–
CCc1noc2nc(C3CC3)cc(C(=O)O)c12 [I.2.25]	–	–	–	pest or weed control at 3000 g/ha (Setaria faberi; [2]): 95%
COc1ccc(-c2noc3nc(C4CC4(F)F)cc(C(=O)O)c23)cc1 (centres unmarked) [I.7.57]	–	80	98	–
Cc1noc2nc(-c3ccc(OC(F)F)cc3)cc(C(=O)O)c12 [I.5.13]	–	–	–	damage (Setaria faberi): 95%
CSC(=O)c1cc(C2CC2)nc2onc(C)c12 [I.1.82]	–	98	98	–
COC(=O)c1cc(C2CC2)nc2onc(CCC3CCCCC3)c12 [I.4.27]	–	–	–	pest or weed control at 3000 g/ha (Abutilon theophrasti; application rate 3.0 kg/ha): 100%
C=CCOC(=O)c1cc(C2CC2)nc2onc(C)c12 [I.1.62]	–	–	–	damage (Abutilon theophrasti; application rate 2.0 kg/ha): 100%
O=C(O)c1cc(C2(F)CC2)nc2onc(-c3ccc(OC(F)F)cc3)c12 [I.7.65]	–	100	100	–
O=C(O)c1cc(C2CC2)nc2onc(C3(F)CC3)c12 [I.2.46]	–	–	–	pest or weed control at 1000 g/ha [1, 2]: 98%; pest or weed control at 1000 g/ha (Chenopodium album; [2]): 98%
O=C(O)c1cc(C2CC2)nc2onc(-c3ccccc3F)c12 [I.2.50]	–	100	100	–
CON(C)C(=O)c1cc(C2CC2)nc2onc(C)c12 [I.1.83]	–	100	100	–
CCCCOCCOCCOC(=O)c1cc(C2CC2)nc2onc(C)c12 [I.1.70]	100	–	–	–
COCc1noc2nc(C3CC3)cc(C(=O)O)c12 [I.2.38]	100	–	–	–
O=C(O)c1cc(C2CC2)nc2onc(-c3ccc(OC(F)F)cc3)c12 [I.2.45]	–	98	98	–
CC(C)Oc1noc2nc(C3CC3)cc(C(=O)O)c12 [I.2.57]	–	–	–	pest or weed control at 1000 g/ha [1, 2]: 100%; pest or weed control at 1000 g/ha (Chenopodium album; [2]): 100%
